Assay results: patent US12102690B2, “Preparation method and application of biomimetic nano-protectant for detoxifying dox-induced cardiac and systemic toxicity” (priority 2021, dated 2024)

Experiments:
[1] = Change in weight of tumor-bearing B6 rats; type: in vivo; details: Day0 to Day24, TC1 tumor-bearing B6 rats
Procedure: (§1) When the tumor volume reached 70-80 mm^3, the NPs+DOX group, the DOX group alone and the NC group were performed respectively; and then changes in size of tumor tissues and the changes in weight of B6 rats were observed and measured from Day0 to Day24. […] However, the volume of tumor tissues in the NC group increases to about 200 times of the initial volume on Day24 (FIG. 20A). […] Meanwhile, due to the rapid growth of tumor tissues in the NC group, the weight of NC group is increased greatly (FIG. 20B).

H9C2 myocardial cells = assay: Survival rate of myocardial cells with CCK-8 reagent after IC50 dose of DOX; type: cell-based, rat; details: DOX group alone, 24 h
Procedure: Different doses of biomimetic nano-protectant DNA&Pro@RBCM-PCM/KALA were added into H9C2 myocardial cells for incubation for 4 h; then, IC50 (50% Inhibitory Concentration) dose of DOX was added; the survival rate of H9C2 myocardial cells was detected with a CCK-8 reagent after 24 h; and a DOX group alone (with a DNA concentration of 0) and a treatment-free NC group (Negative Control) were set as experimental control groups. […] To further describe the protection mechanism of the biomimetic nano-protectant PCM/KALA-RBCM@DNA&Pro, in the invention, a dose of the biomimetic nano-protectant PCM/KALA-RBCM@DNA&Pr (NPs) is determined for protecting the damage of the IC50 dose of DOX to the H9C2 myocardial cells, while three important apoptosis pathway signal molecules (including Bax, Bcl2 and Caspase-3) are selected for Western Blot (WB) test (see FIG. 12).

[2] = tested on: TC1 cells subcutaneous transplanted tumor model of cervical cancer; assay: Tumor inhibition in subcutaneous transplanted tumor model of cervical cancer; type: in vivo; details: Day24, TC1 tumor-bearing B6 rats
Procedure: as §1

COc1cccc2c1C(=O)c1c(O)c3c(c(O)c1C2=O)C[C@@](O)(C(=O)CO)C[C@@H]3O[C@H]1C[C@H](N)[C@H](O)[C@H](C)O1 [DOX, doxorubicin]
change in weight of B6 rats [1]: sudden loss of weight
survival rate of H9C2 cells (H9C2 myocardial cells): about 50%
tumor volume at the end of Day24 relative to the initial volume [2]: about 15 times of the initial volume
